In US20260098017A1, “NOVEL AROMATIC RING DERIVATIVE CONTAINING AMIDE SUBSTITUTION AND USE THEREOF” (TIANJIN PHARMACEUTICAL BIOTECHNOLOGY CO., LTD., priority 2022, published 2026):

Target: Ba/F3 cell line expressing TYK2 (Homo sapiens, UniProt P29597, cells depend on it, form not given)
Assay: In vitro cellular inhibition assay (Ba/F3 cell proliferation, CellTiter-Glo)
Assay type: cell-based
Conditions: read-out: IC50 (the source's name)
Method: The inhibitory effect of the compounds of formula (I) according to the present invention on the TYK2 signaling pathway in cells was assessed using the following method:
Instrumentation: SpectraMax Paradigm reader.
Method: in this experiment, a Ba/F3 cell line expressing TYK2 was employed to assess the effect of the compounds on cell proliferation inhibition by measuring their effects on cell activity in vitro.
Procedure: a CellTiter-Glo buffer was thawed and placed aside till room temperature. A CellTiter-Glo substrate was placed aside till room temperature and dissolved with the buffer to prepare a CellTiter-Glo working solution. To a 96-well flat bottom transparent drug plate, 98 μL of cell culture medium and 2 μL of gradient diluted compound solution were added. The drug plate was placed aside for 10 min, and then 50 μL of the CellTiter-Glo working solution was added. The drug plate was subsequently shaken on an orbital shaker for 2 min and placed aside at room temperature for an additional 10 min. Finally, the luminescence signal was measured on the SpectraMax Paradigm reader.
Data Analysis: the cell proliferation inhibition rate data were processed using the following formula:
Inhibition Rate (Inh %)=100−(RLUDrug−RLUMin)/(RLUMax−RLUMin)×100%.
The inhibition rates of compounds with different concentrations were calculated in EXCEL, and then GraphPad Prism software was employed to plot inhibition rate curve and calculate relevant parameters, including maximum and minimum cell inhibition rates, IC50 values.

GI50 [nM] | Structure (SMILES)
5 to 10 | [2H]C([2H])([2H])NC(=O)c1cnc(NC(=O)C2CC2)cc1Nc1cccc(C(=O)Nc2ccc(C3CC3)cc2)c1OC [Example 71]
5 to 10 | [2H]C([2H])([2H])NC(=O)c1cnc(NC(=O)C2CC2)cc1Nc1cccc(C(=O)Nc2ccc(C(C)C)cc2)c1OC [Example 72]
5 to 10 | [2H]C([2H])([2H])NC(=O)c1cnc(NC(=O)C2CC2)cc1Nc1cccc(C(=O)Nc2ccc(C(C)(C)C)cc2)c1OC [Example 73]
5 to 10 | [2H]C([2H])([2H])NC(=O)c1cnc(NC(=O)C2CC2)cc1Nc1cccc(C(=O)Nc2ccc(C(F)(F)F)cc2)c1OC [Example 74]
5 to 10 | [2H]C([2H])([2H])NC(=O)c1cnc(NC(=O)C2CC2)cc1Nc1cccc(C(=O)Nc2ccc(C#N)cc2)c1OC [Example 75]
5 to 10 | [2H]C([2H])([2H])NC(=O)c1cnc(NC(=O)C2CC2)cc1Nc1cccc(C(=O)Nc2ccc(OC)cc2)c1OC [Example 76]
5 to 10 | [2H]C([2H])([2H])NC(=O)c1cnc(NC(=O)C2CC2)cc1Nc1cccc(C(=O)Nc2ccc(CC)c(C)c2)c1OC [Example 77]
5 to 10 | [2H]C([2H])([2H])NC(=O)c1cnc(NC(=O)C2CC2)cc1Nc1cccc(C(=O)Nc2ccc(C3CC3)c(C)c2)c1OC [Example 78]
5 to 10 | [2H]C([2H])([2H])NC(=O)c1cnc(NC(=O)C2CC2)cc1Nc1cccc(C(=O)Nc2ccc(C(C)C)c(C)c2)c1OC [Example 79]
5 to 10 | [2H]C([2H])([2H])NC(=O)c1cnc(NC(=O)C2CC2)cc1Nc1cccc(C(=O)Nc2ccc(C(C)(C)C)c(C)c2)c1OC [Example 80]
5 to 10 | [2H]C([2H])([2H])NC(=O)c1cnc(NC(=O)C2CC2)cc1Nc1cccc(C(=O)Nc2ccc(C(F)(F)F)c(C)c2)c1OC [Example 81]
5 to 10 | [2H]C([2H])([2H])NC(=O)c1cnc(NC(=O)C2CC2)cc1Nc1cccc(C(=O)Nc2ccc(C#N)c(C)c2)c1OC [Example 82]
5 to 10 | [2H]C([2H])([2H])NC(=O)c1cnc(NC(=O)C2CC2)cc1Nc1cccc(C(=O)Nc2ccc(OC)c(C)c2)c1OC [Example 83]
5 to 10 | [2H]C([2H])([2H])NC(=O)c1cnc(NC(=O)C2CC2)cc1Nc1cccc(C(=O)Nc2ccc(F)c(C)c2)c1OC [Example 84]
5 to 10 | [2H]C([2H])([2H])NC(=O)c1cnc(NC(=O)C2CC2)cc1Nc1cccc(C(=O)Nc2ccn(C)n2)c1OC [Example 85]
5 to 10 | [2H]C([2H])([2H])NC(=O)c1cnc(NC(=O)C2CC2)cc1Nc1cccc(C(=O)Nc2cn(C)cn2)c1OC [Example 87]
5 to 10 | [2H]C([2H])([2H])NC(=O)c1cnc(NC(=O)C2CC2)cc1Nc1cccc(C(=O)Nc2ncn(C)n2)c1OC [Example 88]

GI50 [nM] | Structure (SMILES)
5 to 10 | [2H]C([2H])([2H])NC(=O)c1cnc(NC(=O)C2CC2)cc1Nc1cccc(C(=O)Nc2cccc(C)n2)c1OC [Example 89]
5 to 10 | [2H]C([2H])([2H])NC(=O)c1cnc(NC(=O)C2CC2)cc1Nc1cccc(C(=O)Nc2ccnc(C)c2)c1OC [Example 90]
5 to 10 | [2H]C([2H])([2H])NC(=O)c1cnc(NC(=O)C2CC2)cc1Nc1cccc(C(=O)Nc2cc(C)ccn2)c1OC [Example 92]
5 to 10 | [2H]C([2H])([2H])NC(=O)c1cnc(NC(=O)C2CC2)cc1Nc1cccc(C(=O)Nc2ncc(F)cn2)c1OC [Example 93]
5 to 10 | [2H]C([2H])([2H])NC(=O)c1cnc(NC(=O)C2CC2)cc1Nc1cccc(C(=O)Nc2ccc(F)cn2)c1OC [Example 94]
5 to 10 | [2H]C([2H])([2H])NC(=O)c1cnc(NC(=O)C2CC2)cc1Nc1cccc(C(=O)Nc2ccc(C)cn2)c1OC [Example 95]
5 to 10 | [2H]C([2H])([2H])NC(=O)c1cnc(NC(=O)C2CC2)cc1Nc1cccc(C(=O)Nc2ncc(C)cn2)c1OC [Example 97]
5 to 10 | [2H]C([2H])([2H])NC(=O)c1cnc(NC(=O)C2CC2)cc1Nc1cccc(C(=O)Nc2ccc(F)nc2)c1OC [Example 98]
5 to 10 | [2H]C([2H])([2H])NC(=O)c1cnc(NC(=O)C2CC2)cc1Nc1cccc(C(=O)Nc2cnc(F)nc2)c1OC [Example 99]
5 to 10 | [2H]C([2H])([2H])NC(=O)c1cnc(NC(=O)C2CC2)cc1Nc1cccc(C(=O)Nc2ccccn2)c1OC [Example 100]
5 to 10 | [2H]C([2H])([2H])NC(=O)c1cnc(NC(=O)C2CC2)cc1Nc1cccc(C(=O)Nc2cccnc2)c1OC [Example 101]
5 to 10 | [2H]C([2H])([2H])NC(=O)c1cnc(NC(=O)C2CC2)cc1Nc1cccc(C(=O)Nc2ccncc2)c1OC [Example 102]
5 to 10 | [2H]C([2H])([2H])NC(=O)c1cnc(NC(=O)C2CC2)cc1Nc1cccc(C(=O)Nc2ncccn2)c1OC [Example 103]
5 to 10 | [2H]C([2H])([2H])NC(=O)c1cnc(NC(=O)C2CC2)cc1Nc1cccc(C(=O)Nc2cncnc2)c1OC [Example 104]
5 to 10 | [2H]C([2H])([2H])NC(=O)c1nnc(NC(=O)C2CC2)cc1Nc1cccc(C(=O)NC(C)(C)C)c1OC [Example 105]
5 to 10 | [2H]C([2H])([2H])NC(=O)c1cnc(NC(=O)C2CC2)cc1Nc1cccc(C(=O)NC(C)(C)C)c1OC [Example 106]
